Test results as given in BindingDB's records for patent US20240124479 (Shanghai Meiyue Biotech Development Co., 2024).

Molecular target: T1, Pantetheinase (Homo sapiens, UniProt O95497)
T1 sequence (O95497 whole entry): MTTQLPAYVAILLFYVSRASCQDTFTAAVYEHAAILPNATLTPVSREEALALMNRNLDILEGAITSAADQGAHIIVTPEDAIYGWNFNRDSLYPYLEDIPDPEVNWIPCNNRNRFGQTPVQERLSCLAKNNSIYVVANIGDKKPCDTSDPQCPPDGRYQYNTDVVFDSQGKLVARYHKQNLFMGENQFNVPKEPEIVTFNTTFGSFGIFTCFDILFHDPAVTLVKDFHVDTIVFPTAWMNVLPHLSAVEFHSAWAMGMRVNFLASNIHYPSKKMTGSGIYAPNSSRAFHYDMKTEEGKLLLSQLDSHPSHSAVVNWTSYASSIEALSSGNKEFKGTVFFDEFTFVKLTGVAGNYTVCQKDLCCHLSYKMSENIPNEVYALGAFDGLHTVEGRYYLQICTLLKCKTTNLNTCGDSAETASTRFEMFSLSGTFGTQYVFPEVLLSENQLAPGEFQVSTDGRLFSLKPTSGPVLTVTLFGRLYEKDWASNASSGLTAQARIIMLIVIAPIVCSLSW
Assay: Vanin-1 Recombinant Enzyme Activity Inhibition Assay
Procedure: A certain mass of the compound was weighed precisely, and prepared with DMSO and reaction buffer (50 mM Tris base, 50 mM KCl, 1.6 mM cysteamine, 0.005% Brij 35, pH 8.0, prepared when using) to a maximum concentration of 10000 nM, then diluted in a 4-fold gradient, and prepared into 10 compound working solutions with different concentrations;for the activity inhibition reaction of recombinant human Vanin-1 (Biorab, JN0618), 2.5 μL of compound working solution and 5 μL of recombinant human Vanin-1 protein were first mixed.

IC50	SMILES
65 nM	O=C(c1cnc(NCc2ccccc2)nc1)N1CCC2(CCOCC2)C1 [US20240124479, Compound 5]
6 nM	CC(Nc1ncc(C(=O)N2CCC3(CCOCC3)C2)cn1)c1ccccc1 (stereo not given) [US20240124479, Compound 6]
17 nM	O=C(c1cnc(NCc2ccc(F)cc2F)nc1)N1CCC2(CCOCC2)C1 [US20240124479, Compound 12]
0.4 nM	CC(Nc1ncc(C(=O)N2CCC3(CCOCC3)C2)cn1)c1ccc(OC(F)F)cc1Cl (stereo not given) [US20240124479, Compound 27]
0.8 nM	C[C@@H](Nc1ncc(C(=O)N2CCC3(CCOCC3)C2)cn1)c1ccc(C(F)(F)F)cc1Cl [US20240124479, Compound 28]
0.4 nM	C[C@H](Nc1ncc(C(=O)N2CCC3(CCOCC3)C2)cn1)c1ccc(C(F)(F)F)cc1Cl [US20240124479, Compound 29]
0.1 nM	CC(=O)N(C)[C@H]1CCN(C(=O)c2cnc(NC(C)c3c(F)cccc3C(F)(F)F)nc2)C1 (stereo not given in full) [US20240124479, Compound 38]
1.8 nM	CC(=O)N(C)[C@H]1CCN(C(=O)c2cnc(NC(C)c3ccc(F)cc3Cl)nc2)C1 (stereo not given in full) [US20240124479, Compound 39]

SMILES	IC50
CC(=O)N(C)[C@H]1CCN(C(=O)c2cnc(N[C@H](C)c3ccc(C(F)(F)F)cc3F)nc2)C1 [US20240124479, Compound 41-P2]	0.3 nM
CC(=O)N(C)[C@H]1CCN(C(=O)c2cnc(NC(C)c3ccc(C(F)(F)F)cc3F)nc2)C1 (stereo not given in full) [US20240124479, Compound 41]	0.2 nM
